# Test results as given in patent US6833387B1, “Chemical compounds” (AstraZeneca AB, priority 1999, dated 2004).
# Like-named read-outs stand apart in the source and are kept apart here.
# Assays:
# [1] = target: T1, MCP-1 receptor B (CCR2B) (Homo sapiens, UniProt P41597); assay: hMCP-1 receptor binding assay (125I-MCP-1, CHO-CCR2B cell membranes)
# T1 construct: expressed in transfected cells; membrane fragments
# T1 sequence (P41597 1-360 isoform P41597-2): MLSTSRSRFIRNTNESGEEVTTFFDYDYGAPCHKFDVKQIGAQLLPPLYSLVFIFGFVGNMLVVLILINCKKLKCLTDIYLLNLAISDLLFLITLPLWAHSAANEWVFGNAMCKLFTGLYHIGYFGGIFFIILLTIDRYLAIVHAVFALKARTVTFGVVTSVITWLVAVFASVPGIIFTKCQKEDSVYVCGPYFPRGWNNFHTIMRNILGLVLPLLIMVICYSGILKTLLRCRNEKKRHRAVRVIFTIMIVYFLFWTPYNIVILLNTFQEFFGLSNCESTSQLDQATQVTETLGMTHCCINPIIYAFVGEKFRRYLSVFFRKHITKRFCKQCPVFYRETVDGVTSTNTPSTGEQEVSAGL
# Description: The MCP-1 receptor B (CCR2B) cDNA was cloned by PCR from THP-1 cell RNA using suitable oligonucleotide primers based on the published MCP-1 receptor sequences (Charo et al., 1994, Proc. Natl. Acad Sci. USA. 91, 2752). The resulting PCR products were cloned into vector PCR-II™ (In Vitrogen, San Diego, Calif.). Error free CCR2B cDNA was subcloned as a Hind III-Not I fragment into the eukaryotic expression vector pCDNA3 (In Vitrogen) to generate pCDNA3/CC-CKR2A and pCDNA3/CCR2B respectively.
# Linearised pCDNA3/CCR2B DNA was transfected into CHO-K1 cells by calcium phosphate precipitation (Wigler et al., 1979, Cell, 16, 777). Transfected cells were selected by the addition of Geneticin Sulphate (G418, Gibco BRL) at 1 mg/ml, 24 hours after the cells had been transfected. Preparation of RNA and Northern blotting were carried out as described previously (Needham et al., 1995, Prot. Express. Purific., 6, 134). CHO-K1 clone 7 (CHO-CCR2B) was identified as the highest MCP-1 receptor B expressor.
# CHO-CCR2B cells were grown in DMEM supplemented with 10% foetal calf serum. 2 mM glutamine. […]
# ^125I MCP-1 was prepared using Bolton and Hunter conjugation (Bolton et al. 1973. Biochem. J., 133, 529, Amersham International plc]. Equilibrium binding assays were carried out using the method of Ernst et al., 1994, J. Immunol., 152, 3541. Briefly, varying amounts of ^125I-labeled MCP-1 were added to 7 μg of purified CHO-CCR2B cell membranes in 100 μl of Binding Buffer. After 1 hour incubation at room temperature the binding reaction mixtures were filtered and washed 5 times through a plate washer (Brandel MLR-96T Cell Harvester) using ice cold Binding Buffer. Filter mats (Brandel GF/B) were pre-soaked for 60 minutes in 0.3% polyethylenimine prior to use. Following filtration individual filters were separated into 3.5 ml tubes (Sarstedt No. 55,484) and bound ^125I-labeled MCP-1 was determined (LKB 1277 Gammamaster). […] Non-specific binding was determined by the inclusion of a 200-fold molar excess of unlabelled MCP-1 in the reaction. […]
# [2] = test system: THP-1 cells; assay: MCP-1 mediated calcium flux in THP-1 cells; format: cell-based, human; conditions: stimulation of THP-1 cells, approximate; read-out: EC50 for rise in [Ca2+]i
# Method: The human monocytic cell line THP-1 was grown in a synthetic cell culture medium RPMI 1640 supplemented with 10% foetal calf serum. 6 mM glutamine and Penicillin-Streptomycin (at 50 μg streptomycin/mil, Gibco BRL). THP-1 cells were washed in HBSS (lacking Ca^2+ and Mg^2+)+1 mg/ml BSA and resuspended in the same buffer at a density of 3×10^6 cells/ml. The cells were then loaded with […] FURA-2/AM for 30 min at 37° C., washed twice in HBSS, and resuspended at 1×10^6 cells/ml. THP-1 cell suspension (0.9 ml) was added to a 5 ml disposable cuvette containing a magnetic stirrer bar and 2.1 ml of prewarmed (37° C.) HBSS containing 1 mg/ml BSA. 1 mM MgCl2 and 2 mM CaCl2. The cuvette was placed in a fluorescence spectrophotometer (Perkin Elmer, Norwalk, Conn.) and preincubated for 4 min at 37° C. with stirring. Fluorescence was recorded over 70 sec and cells were stimulated by addition of hMCP-1 to the cuvette after 10 sec. [Ca^2+]i was measured by excitation at 340 nm and 380 nm alternately and subsequent measurement of the intensity of the fluorescence emission at 510 nm.
# where the Kd for FURA-2 Ca^2+ complex at 37° C. was taken to be 224 nm. […]
# [3] = test system: THP-1 cells; assay: hMCP-1 mediated chemotaxis; format: cell-based, human; conditions: THP-1 cell migration
# Method: In vitro chemotaxis assays were performed using the human monocytic cell line THP-1. Cell migration through polycarbonate membranes was measured by enumerating those passing through either directly by Coulter counting or indirectly by use of a colourimetric viability assay measuring the cleavage of a tetrazolium salt by the mitochondrial respirator chain (Scudiero D. A., et al. 1988, Cancer Res., 48, 4827-4833).
# Chemoattractants were introduced into a 96-well microtitre plate which forms the lower well of a chemotaxis chamber fitted with a PVP-free 5 μm poresize polycarbonate adhesive framed filter membrane (NeuroProbe MB series, Cabin John, Md. 20818, USA) according to the manufacturer's instructions. The chemoattractant was diluted as appropriate in synthetic cell culture medium. […] The plate was incubated at 37° C. for 3 h and the absorbance of the soluble formazan product was read on a microtitre plate reader at 450 nm. The data was input into a spreadsheet, corrected for any random migration in the absence of chemoattractant and the average absorbance values, standard error of the mean, and significance tests were calculated, hMCP-1 induced concentration dependent cell migration with a characteristic biphasic response, maximal 0.5-1.0 nm. […]
EC50 [2],"IC50 ([1]; membrane fragments from CHO-CCR2B cells, cold competition, read-out: IC50 of MCP-1 binding to CCR2B)","Kd ([1]; membrane fragments from CHO-CCR2B cells, equilibrium binding)",Compound,"IC50 ([1]; competition with 100 pM labelled MCP-1, CHO-CCR2B membranes, read-out: IC50 in the hMCP-1 receptor binding assay)",concentration of maximal cell migration (biphasic response) [3]
,,,O=C(NC1CCS(=O)(=O)C1)c1c(C(=O)O)n(Cc2ccc(Cl)c(Cl)c2)c2ccccc12 (centres unmarked) [Compound 81],6860 nM,
~2 nM,0.11 nM,0.12 nM,"MCP-1: Human Monocyte Chemoattractant Protein-1, a C—C chemokine; ligand of the MCP-1 (CCR2) receptor",,0.5-1.0 nm
